US20240025922A1, “TETRAHYDROPYRIDO[3,4-d]PYRIMIDINES AS HPK1 INHIBITORS” (Merck Patent GmbH, priority 2022, published 2024)

Tests used:
[1] = biological target: full-length human HPK1 (MAP4K1) (Homo sapiens (Human), UniProt Q92918); experiment: HPK1 Kinase Assay (Biochemical Assay), ADP-Glo; conditions: GST-HPK1 3.2 nM, 10 μM ATP, MBP substrate, read-out: HPK1 enzymatic IC50
Summary of the method: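 ADP-Glo luminescence after a 120-min kinase reaction gave percent inhibition and IC50. The enzyme was Sf21-expressed N-terminal GST full-length human HPK1 at 3.2 nM in HEPES pH 7.5 buffer with MgCl2, DTT, Brij-35 and BSA.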

[2] = biological target: HPK1 (SLP76 phosphorylation at Ser376 in Jurkat and EL-4 cells) (Homo sapiens, UniProt Q92918); type: cell-based; conditions: αCD3/αCD28 Dynabeads stimulated cells, pSLP76 (Ser376) detection; read-out: HPK1 pSLP76 IC50
Summary of the method: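 Phospho-SLP76 (Ser376) in lysates measured by AlphaLISA for human Jurkat and by 19 h HTRF for mouse EL-4, giving % inhibition and IC50. Compounds applied 60 min before αCD3/αCD28 bead stimulation at 37 °C, lasting 15 min (Jurkat) or 30 min (EL-4).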

Sequence of full-length human HPK1 (MAP4K1) (Q92918 whole entry): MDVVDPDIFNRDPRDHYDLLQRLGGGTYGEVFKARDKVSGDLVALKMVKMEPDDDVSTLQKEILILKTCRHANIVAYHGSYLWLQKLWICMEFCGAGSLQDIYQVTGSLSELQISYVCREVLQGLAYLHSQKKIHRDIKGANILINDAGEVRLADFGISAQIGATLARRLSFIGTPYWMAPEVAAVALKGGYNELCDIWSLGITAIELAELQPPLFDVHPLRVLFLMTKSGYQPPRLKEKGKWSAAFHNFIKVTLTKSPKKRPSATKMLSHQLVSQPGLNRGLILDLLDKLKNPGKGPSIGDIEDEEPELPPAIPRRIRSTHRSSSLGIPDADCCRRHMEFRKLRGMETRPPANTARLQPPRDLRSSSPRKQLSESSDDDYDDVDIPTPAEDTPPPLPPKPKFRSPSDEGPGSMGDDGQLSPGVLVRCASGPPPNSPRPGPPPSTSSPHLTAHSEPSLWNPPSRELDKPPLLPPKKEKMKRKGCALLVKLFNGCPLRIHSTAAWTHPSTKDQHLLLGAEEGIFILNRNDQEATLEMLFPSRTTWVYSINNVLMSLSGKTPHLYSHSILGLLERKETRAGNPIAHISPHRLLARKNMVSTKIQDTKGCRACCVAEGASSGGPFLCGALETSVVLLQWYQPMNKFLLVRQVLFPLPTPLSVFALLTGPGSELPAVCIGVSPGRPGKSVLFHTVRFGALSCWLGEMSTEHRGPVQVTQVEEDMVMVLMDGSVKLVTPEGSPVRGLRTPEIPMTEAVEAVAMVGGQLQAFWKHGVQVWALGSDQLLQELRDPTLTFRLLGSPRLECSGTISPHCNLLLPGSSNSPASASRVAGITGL
Sequence of HPK1 (SLP76 phosphorylation at Ser376 in Jurkat and EL-4 cells) (Q92918 whole entry, looked up): as the sequence (Q92918 whole entry) above

IC50 [1] [µM]	IC50 [2] [µM]	Structure (SMILES)
< 0.1	0.5 to 1	Cc1c(N2CCc3cnc(Nc4cnc5c(c4)CN(C)CC5)nc3C2)cnc2c1NCCO2 [Example 115, 7-(8-methyl-2,3-dihydro-1H-pyrido[2,3-b][1,4]oxazin-7-yl)-N-(6-methyl-5,6,7,8-tetrahydro-1,6-naphthyridin-3-yl)-5,6,7,8-tetrahydropyrido[3,4-d]pyrimidin-2-amine]
< 0.1	> 1	Cc1c(N)cncc1N1CCc2cnc(Nc3cnc4c(c3)CN(C)CC4)nc2C1 [Example 116, 7-(5-amino-4-methylpyridin-3-yl)-N-(6-methyl-5,6,7,8-tetrahydro-1,6-naphthyridin-3-yl)-5,6,7,8-tetrahydropyrido[3,4-d]pyrimidin-2-amine]
< 0.1	> 1	Cc1ccncc1N1CCc2cnc(Nc3cnc4c(c3)CN(C)CC4)nc2C1 [Example 118, N-(6-methyl-5,6,7,8-tetrahydro-1,6-naphthyridin-3-yl)-7-(4-methylpyridin-3-yl)-5,6,7,8-tetrahydropyrido[3,4-d]pyrimidin-2-amine]
< 0.1	> 1	Cc1cnsc1N1CCc2cnc(Nc3cnc4c(c3)CN(C)CC4)nc2C1 [Example 119, N-(6-methyl-5,6,7,8-tetrahydro-1,6-naphthyridin-3-yl)-7-(4-methylisothiazol-5-yl)-5,6,7,8-tetrahydropyrido[3,4-d]pyrimidin-2-amine]
< 0.1	< 0.5	Cc1cc(Nc2ncc3c(n2)CN(c2cnc4c(c2Cl)NCCO4)CC3)ccc1NC(=O)CN1CCC1 [Example 121, 2-(azetidin-1-yl)-N-(4-((7-(8-chloro-2,3-dihydro-1H-pyrido[2,3-b][1,4]oxazin-7-yl)-5,6,7,8-tetrahydropyrido[3,4-d]pyrimidin-2-yl)amino)-2-methylphenyl)acetamide]
< 0.1	0.5 to 1	Cc1cc(Nc2cc3c(cn2)CCN(c2cnc4c(c2Cl)NCCO4)C3)ccc1NC(=O)CN1CCOCC1 [Example 122, N-(4-((6-(8-chloro-2,3-dihydro-1H-pyrido[2,3-b][1,4]oxazin-7-yl)-5,6,7,8-tetrahydro-2,6-naphthyridin-3-yl)amino)-2-methylphenyl)-2-morpholinoacetamide]
< 0.1	0.5 to 1	Cc1c(N2CCc3cnc(Nc4ccc(NCCN(C)C)c(F)c4)cc3C2)cnc2c1NCCO2 [Example 124, N1-(2-(dimethylamino)ethyl)-2-fluoro-N4-(6-(8-methyl-2,3-dihydro-1H-pyrido[2,3-b][1,4]oxazin-7-yl)-5,6,7,8-tetrahydro-2,6-naphthyridin-3-yl)benzene-1,4-diamine]
< 0.1	> 1	Cc1c(N2CCc3cnc(Nc4ccc(CN5CCCC5)cc4)nc3C2)cnc2c1NCCO2 [Example 125, 7-{8-methyl-1H,2H,3H-pyrido[2,3-b][1,4]oxazin-7-yl}-N-{4-[(pyrrolidin-1-yl)methyl]phenyl}-5H,6H,7H,8H-pyrido[3,4-d]pyrimidin-2-amine]
< 0.1	< 0.5	Cc1c(N2CCc3cnc(Nc4ccc(Cn5cncn5)cc4)nc3C2)cnc2c1NCCO2 [Example 126, 7-{8-methyl-1H,2H,3H-pyrido[2,3-b][1,4]oxazin-7-yl}-N-{4-[(1H-1,2,4-triazol-1-yl)methyl]phenyl}-5H,6H,7H,8H-pyrido[3,4-d]pyrimidin-2-amine]
< 0.1	< 0.5	Cc1c(N2CCc3cnc(Nc4ccc(Cn5ccnc5)cc4)nc3C2)cnc2c1NCCO2 [Example 127, N-{4-[(1H-imidazol-1-yl)methyl]phenyl}-7-{8-methyl-1H,2H,3H-pyrido[2,3-b][1,4]oxazin-7-yl}-5H,6H,7H,8H-pyrido[3,4-d]pyrimidin-2-amine]
< 0.1	< 0.5	Cc1c(N2CCc3cnc(Nc4ccc(CS(N)(=O)=O)cc4)nc3C2)cnc2c1NCCO2 [Example 128, {4-[(7-{8-methyl-1H,2H,3H-pyrido[2,3-b][1,4]oxazin-7-yl}-5H,6H,7H,8H-pyrido[3,4-d]pyrimidin-2-yl)amino]phenyl}methanesulfonamide]
